Source: patent US20070066595A1, “Selective estrogen receptor modulators” (priority 2004, published 2007)
Read-outs that look alike come from different tables or passages of the source.

Key:
[1] = test system: mature F344 female rats, serum LH and estradiol; experiment: 10-Day Rat Hormone (Ovarian Stimulation) Screen; format: in vivo; details: oral gavage 10 days; serum about 2 hours after 10th dose; RIA
Procedure: 10-Day Rat Hormone (Ovarian Stimulation) Screen: An initial, first screen for ovarian toxicity is conducted using a 10-day rat hormone study to measure estradiol and luteinizing hormone levels after compound administration. This screen is conducted by administering compound by oral gavage for 10 days to mature (9-10 week old) F344 female rats. Trunk blood is collected by rapid decapitation for evaluation of LH and estradiol levels approximately 2 hours after the 10th dose. Serum, obtained by centrifugation, is removed and stored frozen below −60° C. until assayed. Serum levels of LH and estradiol are measured using radioimmunoassay (RIA) methods.
Rat LH primary antibody and reference preparations (rat LH:RP-3) are obtained from Dr. A. F. Parlow, Director, Pituitary Hormones and Antisera Center, Harbor-UCLA Medical Center, Torrance, Calif. The LH assay upper limits of detection are 30 ng/mL and the lower limits of detection are 0.1 ng/mL for the 100 μl samples.
E2 Clinical Assays. DiaSorin s.r.l., Saluggia (Vercelli), Italy. The upper limit of detection is 1000 pg/mL and the lower limit of detection is 5 pg/mL.

[2] = test system: immature (3 week old) female rats, estrogen-induced uterine weight; experiment: 3-Day Rat Uterus Antagonist Assay; format: in vivo; details: 3 days, with E2 0.1 mg/kg; for inhibition of the estrogen-induced response: 1.0 mg/kg oral, uterine weight/body weight ratio
From the text: 3-Day Rat Uterus Antagonist Assay: This model for uterine antagonism utilizes immature (3 week old) female rats that are highly sensitive to estrogenic stimulation of the uterus given that their circulating estrogen levels are prepubertal. The uteri from immature rats are fully responsive to exogenous estrogen, yet are quiescent in the absence of exogenous estrogen. Administration of exogenous estrogen to immature rats produces a reliable elevation of uterine weight, which can be used to study uterine antagonist effects. The rats are treated with both estradiol and 4 different concentrations of a compound of the present invention for 3 days and then uterine wet weights are measured.
Nineteen to twenty-one day old (or 45-50 g) female rats are orally treated with E2 (0.1 mg/kg, a maximal stimulatory estrogenic stimulus for reliably increasing uterine weight) and 10, 1.0, 0.1 and 0.01 mg/kg test compound for 3 days, 6 rats per group. Test compounds are dissolved in 20% β-hydroxycyclodextrin and administered by oral gavage in a volume of 0.2 mL daily (15 min. prior to the ethynyl estradiol gavage). A vehicle control, E2 alone and E2+raloxifene are also done as controls. The animals are fasted overnight following the final dose. On the following morning, the animals are weighed, then euthanized (by carbon dioxide asphyxiation) and the uteri rapidly collected (via a mid-line ventral incision) and weighed.
Uterine weight/body weight ratios (UWR) are calculated for each animal. The percent inhibition of the estrogen-induced response is then calculated by the following formula: percent inhibition=100×(UWRestrogen−UWRtest compound/UWRestrogen−UWRcontrol). ED50 values are derived from a semi-log regression analysis of the linear aspect of the dose response curve. Both the UWR data and the percent inhibition data are statistically analyzed by one way analysis of variance (ANOVA) with post-hoc testing by Fisher's PLSD when indicated by a p<0.05. Statistical analyses are performed using the Statview® 4.0 software package.

[3] = test system: Ishikawa human endometrial tumor cells; experiment: Ishikawa Cell Proliferation Assay (alkaline phosphatase readout; agonist and antagonist modes); format: cell-based
Procedure: Ishikawa Cell Proliferation Assay: This assay measures cell proliferation (using an alkaline phosphatase readout) in both an agonist mode in the presence of a compound of the present invention alone, and in an antagonist mode in which the ability of a compound of the present invention to block estradiol stimulation of growth is measured.
Ishikawa human endometrial tumor cells are maintained in MEM (minimum essential medium, with Earle's salts and L-Glutamine, Gibco BRL, Gaithersburg, Md.), supplemented with 10% fetal bovine serum (FBS) (V/V), (Gibco BRL). One day prior to assay, growth media is changed to assay medium, DMEM/F-12 (3:1) (Dulbecco's Modified Eagle Medium: Nutrient Mixture F-12, 3:1 Mixture, phenol red-free, Gibco BRL) supplemented with 5% dextran coated charcoal stripped fetal bovine serum (DCC-FBS) (Hyclone, Logen, Utah), L-Glutamine (2 mM), MEM sodium pyruvate (1 mM), HEPES (N-[2-hydroxyethyl]piperazine-N′-[2-ethanesulfonic acid]2 mM) all from Gibco BRL). After an overnight incubation, Ishikawa cells are rinsed with Dulbecco's Phosphate Buffered Saline (1×) (D-PBS) without Ca^+2 and Mg^+2 (Gibco BRL), and trypsinized by a 3 minute incubation with 0.25% Trypsin/EDTA, phenol red-free (Gibco BRL). Cells are resuspended in assay medium and adjusted to 250,000 cells/mL. Approximately 25,000 cells in a 100 ul media are added to flat-bottom 96 wells microculture plates (Costar 3596) and incubated at 37° C. in a 5% CO2 humidified incubator for 24 hours. […]
For the antagonist mode, plates receive 25 μl/well of 6 nM E2 (β-Estradiol, Sigma, St. Louis, Mo.) followed by 25 μl/well of a diluted compound of the present invention (at 6× the final concentrations). […] After a 20-minute incubation, plates are read on a spectophotometer at 405 nm.
The data is fitted to a linear interpolation to derive EC50 (for agonist mode) or IC50 (for antagonist mode) values. For the antagonist mode, a % efficacy for each compound is calculated versus E2 (1 nM) alone. For the agonist mode, a % efficacy for each compound is calculated versus the response to tamoxifen.

**Q.** For `CS(=O)(=O)C1CC=C(c2ccc3cc(O)ccc3c2Oc2ccc(OCCN3CCCCC3)cc2)CC1.Cl` (racemic) [Example 2, (+/−)-6-(4-Methanesulfonyl-cyclohex-1-enyl)-5-[4-(2-piperidin-1-yl-ethoxy)-phenoxy]-naphthalen-2-ol Hydrochloride], which “circulating LH levels” value [1] is on record?
**A.** did not significantly elevate

**Q.** And the circulating estradiol levels [1]?
**A.** did not significantly elevate

**Q.** And the “inhibition of the estrogen-induced response” value (shortened to “inhibition”) [2]?
**A.** inhibit the estrogen-induced response

**Q.** How did the “inhibition” value [2] turn out when `CS(=O)(=O)C1CCC(c2ccc3cc(O)ccc3c2Oc2ccc(OCCN3CCCCC3)cc2)CC1.Cl` (stereo not drawn) [Example 3, 6-cis-and-trans-(4-Methanesulfonyl-cyclohexyl)-5-[4-(2-piperidin-1-yl-ethoxy)-phenoxy]-naphthalen-2-ol Hydrochloride] was run?
**A.** inhibit the estrogen-induced response

**Q.** What does the source list for `Cl.O=S1(=O)CC=C(c2ccc3cc(O)ccc3c2Oc2ccc(OCCN3CCCCC3)cc2)CC1` [Example 9, 6-(1,1-Dioxo-1,2,3,6-tetrahydro-1λ^6-thiopyran-4-yl)-5-[4-(2-piperidin-1-yl-ethoxy)-phenoxy]-naphthalen-2-ol Hydrochloride]?
**A.** Emax ([3]; agonist mode, versus the response to tamoxifen, read-out: relative % efficacy): 19%; IC50 ([3]; antagonist mode, block of estradiol stimulation): 7.2 nM; Emax ([3]; antagonist mode, versus E2 (1 nM) alone, read-out: % efficacy (inhibition of the 1 nM estradiol response)): 97.9%; inhibition of the estrogen-induced response [2]: inhibit the estrogen-induced response; % antagonism ([2]; oral): 72.6%; ED50 ([2]; oral): 0.17 mpk

**Q.** `Cl.O=S1(=O)CCC(c2ccc3cc(O)ccc3c2Oc2ccc(OCCN3CCCCC3)cc2)CC1` [Example 10, 6-(1,1-Dioxo-hexahydro-1λ^6-thiopyran-4-yl)-5-[4-(2-piperidin-1-yl-ethoxy)-phenoxy]-naphthalen-2-ol Hydrochloride] was tested. Which “inhibition” value [2] did it give?
**A.** inhibit the estrogen-induced response
